Laboratory results from BindingDB's records for doi:10.1016/j.chembiol.2009.02.013 (Pfizer, 2009).

Molecular target: T1, Fatty-acid amide hydrolase 1 [30-579] (Rattus norvegicus, UniProt P97612)
T1 construct: 30-579
T1 sequence (P97612 whole entry): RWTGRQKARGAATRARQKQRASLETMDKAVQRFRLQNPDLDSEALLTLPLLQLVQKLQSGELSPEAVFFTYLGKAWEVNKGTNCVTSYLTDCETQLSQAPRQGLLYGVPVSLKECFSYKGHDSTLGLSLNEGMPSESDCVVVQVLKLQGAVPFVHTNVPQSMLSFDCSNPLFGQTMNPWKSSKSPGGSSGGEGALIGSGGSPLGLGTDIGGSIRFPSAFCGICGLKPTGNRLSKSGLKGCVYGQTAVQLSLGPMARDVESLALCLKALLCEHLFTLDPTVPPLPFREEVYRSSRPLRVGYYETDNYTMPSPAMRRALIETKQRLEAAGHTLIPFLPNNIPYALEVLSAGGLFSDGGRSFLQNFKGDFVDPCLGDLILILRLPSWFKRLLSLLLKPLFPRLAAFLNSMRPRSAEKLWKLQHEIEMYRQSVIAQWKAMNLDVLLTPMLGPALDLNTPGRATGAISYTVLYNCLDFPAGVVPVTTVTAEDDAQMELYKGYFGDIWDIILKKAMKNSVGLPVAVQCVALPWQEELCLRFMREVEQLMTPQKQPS
Assay: Enzyme-coupled Assay
From the text: Enzyme-coupled assay using oleamide as substrate where stoichiometic quantites of NAD are formed upon the generation of ammonia from oleamide by FAAH hydrolysis.

SMILES: O=C(Nc1cccnc1)N1CCC(Cc2cccc(Oc3ccc(C(F)(F)F)cn3)c2)CC1 [PF-3845, 10]
- Ki: 230 nM
